Paper PMC8070256, “Feasibility of Developing Radiotracers for MDM2: Synthesis and Preliminary Evaluation of an ^18F-Labeled Analogue of the MDM2 Inhibitor SP-141” (Pharmaceuticals, 2021)
Where “and” joins values, the source holds several entries; their conditions need not be identical. Equal entries are not always repeated.

Legend:
[1] = test system: athymic mice bearing HepG2 xenografts; experiment: Tissue distribution studies in HepG2 xenografts; type: in vivo
Description: Based on the promising results obtained with [^18F]1 in vitro, tissue distribution studies were conducted in athymic mice bearing subcutaneous HepG2 tumor xenografts. HepG2 tumor model was selected because of the higher uptake of [^18F]1 in HepG2 cells and a substantial increase in the uptake in response to co-incubation with 100 µM SP-141, compared to that in MCF-7 cells (Figure 5). Groups of five mice were injected intravenously with [^18F]1 and euthanized at 0.5, 1, or 2 h post injection to determine the tissue distribution of [^18F]1. A separate group of animals (n = 4) were injected intraperitoneally with SP-141 (1.2 mg per mouse; ~140 µM) 30 min before [^18F]1 injection to assess the specificity of tracer uptake in tumors. […] At 30 min post injection, radioactivity levels in most organs were ≥3 %ID/g and decreased to ~2 %ID/g by 2 h.
All animal experiments were conducted in accordance with the regulations of the Duke University Institutional Animal Care and Use Committee (IACUC) under an IACUC-approved protocol. Tissue distribution studies were conducted in mice bearing subcutaneous HepG2 tumor xenografts. To generate the tumor model, male athymic mice (Jackson Labs, Farmington, CT, USA) were injected with 5 × 10^6 HepG2 cells suspended in DMEM and Matrigel (Corning®, Corning, NY, USA, 1:1, 100 µL) in the flank; tissue distribution studies were initiated when the tumor volume reached 200 mm^3. For these studies, groups of five mice were injected with [^18F]1 by the intravenous route and euthanized at 0.5, 1, or 2 h post injection (n = 5 per time point) to assess the tissue distribution of [^18F]1 as described previously. A separate group of animals (n = 4) was injected with SP-141 (1.2 mg per mouse; ~140 µM) by intraperitoneal injection 30 min before [^18F]1 injection to assess the specificity of tracer uptake. The concentration of ^18F activity was calculated as the percentage injected dose per gram tissue (%ID/g).

[2] = Lipophilicity, shake-flask partitioning between PBS (pH 7.4) and n-octanol; type: physicochemical; settings: PBS (pH 7.4) / n-octanol, read-out: log D7.4
Description: The lipophilicity of [^18F]1 was determined by its partitioning between PBS (pH 7.4) and n-octanol by the shake-flask method as previously described.
An aliquot of [^18F]1 (0.37 MBq) was added to a mixture of PBS (pH 7.4) and n-octanol (2 mL each, n = 3) in polypropylene tubes. The mixture was vortexed for one minute, and the organic phase was separated by centrifugation (3000 rpm, 5 min). Next, aliquots of octanol (50 µL) and PBS (500 µL) were collected from each tube into preweighed Eppendorf® tubes and measured for radioactivity in an automated gamma counter (Wallac Wizard™, Perkin Elmer, Waltham, MA, USA). Samples were weighed, and the weights were converted to volume according to solvent density. The partition coefficient value was calculated as the ratio of radioactivity (counts per minute (CPM)/mL) in octanol to that in the aqueous phase.

[3] = In vitro stability in human serum (HPLC); type: in vitro ADME; settings: 37 °C, 1, 2 and 3 h
Description: Next, the in vitro stability of [^18F]1 was examined by incubating the labeled compound with human serum for up to 3 h at 37 °C, followed by HPLC analysis of the samples using gradient elution conditions.
The stability of [^18F]1 in human serum (Innovative Research Inc., Novi, MI, USA) was analyzed by HPLC using a Chromolith® Performance RP-18e column (4.6 × 100 mm, Millipore Sigma, Burlington, MA, USA), eluted with gradient mixtures of sodium acetate buffer (0.05 M, pH 5.5) and ethanol. The percentage of ethanol was kept at 5% for the first 5 min at a flow rate of 0.5 mL and then increased to 90% over 15 min at a flow rate of 1 mL/min. The stability studies were initiated by incubating human serum (0.5 mL) with [^18F]1 (6.66 MBq in 20 µL ethanol) at 37 °C. Samples (100 µL) were analyzed by HPLC after 0, 1, 2, and 3 h incubation. At each time point, the serum sample was spiked with the nonradioactive 1 (10 µg) before HPLC analysis for identity confirmation of the parent peak ([^18F]1).

[4] = 1 h Block: SP-141 (1.2 mg) i.p. 30 min before i.v. [^18F]1

[18F]CCOc1ccc2[nH]c3c(-c4cccc5ccccc45)nccc3c2c1 [[^18F]1]
Biodistribution, Blood ([1]; 30 min post i.v. injection): 4.2 ± 0.6 %ID/g | Biodistribution, Bone ([1]; 30 min post i.v. injection): 3.1 ± 0.6 %ID/g | Biodistribution, Brain ([1]; 30 min post i.v. injection): 2.9 ± 0.8 %ID/g | Biodistribution, Heart ([1]; 30 min post i.v. injection): 4.1 ± 0.7 %ID/g | Biodistribution, Kidneys ([1]; 30 min post i.v. injection): 3.7 ± 0.8 %ID/g | Biodistribution, Large Intestine ([1]; 30 min post i.v. injection): 6.1 ± 1.7 %ID/g | Biodistribution, Liver ([1]; 30 min post i.v. injection): 3.2 ± 0.5 %ID/g | Biodistribution, Lungs ([1]; 30 min post i.v. injection): 3.9 ± 0.6 %ID/g | Biodistribution, Muscle ([1]; 30 min post i.v. injection): 3.5 ± 0.8 %ID/g | Biodistribution, Skin ([1]; 30 min post i.v. injection): 3.7 ± 0.7 %ID/g | Biodistribution, Small Intestine ([1]; 30 min post i.v. injection): 3.9 ± 1.0 %ID/g | Biodistribution, Spleen ([1]; 30 min post i.v. injection): 3.3 ± 0.4 %ID/g | Biodistribution, Stomach ([1]; 30 min post i.v. injection): 5.1 ± 2.0 %ID/g | Biodistribution, Tumor (HepG2 xenograft) ([1]; 30 min post i.v. injection): 3.3 ± 0.3 %ID/g | Biodistribution, Blood [1, 4]: 2.7 ± 0.9 %ID/g | Biodistribution, Bone [1, 4]: 1.9 ± 0.4 %ID/g | Biodistribution, Brain [1, 4]: 3.3 ± 0.5 %ID/g | Biodistribution, Heart [1, 4]: 3.7 ± 0.3 %ID/g | Biodistribution, Kidneys [1, 4]: 3.8 ± 0.4 %ID/g | Biodistribution, Large Intestine [1, 4]: 3.4 ± 1.4 %ID/g | Biodistribution, Liver [1, 4]: 3.3 ± 0.6 %ID/g | Biodistribution, Lungs [1, 4]: 3.5 ± 0.8 %ID/g | Biodistribution, Muscle [1, 4]: 3.3 ± 0.4 %ID/g | Biodistribution, Skin [1, 4]: 3.0 ± 0.7 %ID/g | Biodistribution, Small Intestine [1, 4]: 4.1 ± 0.3 %ID/g | Biodistribution, Spleen [1, 4]: 3.0 ± 0.6 %ID/g | Biodistribution, Stomach [1, 4]: 1.6 ± 1.2 %ID/g | Biodistribution, Tumor (HepG2 xenograft) [1, 4]: 3.2 ± 0.7 %ID/g | Biodistribution, Blood ([1]; 1 h post i.v. injection): 4.1 ± 0.6 %ID/g | Biodistribution, Bone ([1]; 1 h post i.v. injection): 3.6 ± 1.0 %ID/g | Biodistribution, Brain ([1]; 1 h post i.v. injection): 2.6 ± 0.8 %ID/g | Biodistribution, Heart ([1]; 1 h post i.v. injection): 4.0 ± 0.7 %ID/g | Biodistribution, Kidneys ([1]; 1 h post i.v. injection): 3.3 ± 0.6 %ID/g | Biodistribution, Large Intestine ([1]; 1 h post i.v. injection): 7.7 ± 1.8 %ID/g | Biodistribution, Liver ([1]; 1 h post i.v. injection): 2.8 ± 0.4 %ID/g | Biodistribution, Lungs ([1]; 1 h post i.v. injection): 3.8 ± 0.7 %ID/g | Biodistribution, Muscle ([1]; 1 h post i.v. injection): 2.6 ± 0.6 %ID/g | Biodistribution, Skin ([1]; 1 h post i.v. injection): 3.4 ± 0.5 %ID/g | Biodistribution, Small Intestine ([1]; 1 h post i.v. injection): 4.0 ± 0.7 %ID/g | Biodistribution, Spleen ([1]; 1 h post i.v. injection): 2.7 ± 0.7 %ID/g | Biodistribution, Stomach ([1]; 1 h post i.v. injection): 2.7 ± 0.8 %ID/g | Biodistribution, Tumor (HepG2 xenograft) ([1]; 1 h post i.v. injection): 3.0 ± 0.7 %ID/g | Biodistribution, Blood ([1]; 2 h post i.v. injection): 3.3 ± 0.8 %ID/g | Biodistribution, Bone ([1]; 2 h post i.v. injection): 5.4 ± 0.8 %ID/g | Biodistribution, Brain ([1]; 2 h post i.v. injection): 2.0 ± 0.7 %ID/g | Biodistribution, Heart ([1]; 2 h post i.v. injection): 3.3 ± 0.9 %ID/g | Biodistribution, Kidneys ([1]; 2 h post i.v. injection): 2.4 ± 0.6 %ID/g | Biodistribution, Large Intestine ([1]; 2 h post i.v. injection): 7.1 ± 2.9 %ID/g | Biodistribution, Liver ([1]; 2 h post i.v. injection): 2.4 ± 0.5 %ID/g | Biodistribution, Lungs ([1]; 2 h post i.v. injection): 2.1 ± 0.8 %ID/g | Biodistribution, Muscle ([1]; 2 h post i.v. injection): 2.6 ± 0.7 %ID/g | Biodistribution, Skin ([1]; 2 h post i.v. injection): 3.1 ± 0.4 %ID/g | Biodistribution, Small Intestine ([1]; 2 h post i.v. injection): 3.0 ± 0.5 %ID/g | Biodistribution, Spleen ([1]; 2 h post i.v. injection): 2.1 ± 0.4 %ID/g | Biodistribution, Stomach ([1]; 2 h post i.v. injection): 2.1 ± 0.7 %ID/g | Biodistribution, Tumor (HepG2 xenograft) ([1]; 2 h post i.v. injection): 3.0 ± 0.8 %ID/g | Radioactivity levels in most organs / normal tissues ([1]; 2 h post injection): ~ 2 %ID/g and 2–3 %ID/g | Tumor-to-muscle ratio ([1]; 2 h post injection): 1.14 ± 0.18 | Tumor-to-normal tissue (tumor-to-background) ratios ([1]; 2 h post injection): < 2 | Tumor uptake and retention in HepG2 xenografts ([1]; over the 2-h observation period): ~ 3 %ID/g | logD [2]: 2.35 ± 0.19 | Percentage of intact [^18F]1 [3]: ~ 100%
